Reference: patent publication US20110206638A1, “COMPOSITIONS AND METHODS FOR REDUCING THE MUTATION RATE OF VIRUSES” (priority 2010, published 2011)

Experiments:
[1] = system: subgenomic HCV replicon of genotype 1b (Con1S1179I), NS5A region; assay: NS5A sequencing of HCV RNA, nucleotide and amino acid substitution rates in Con1 replicon cells (Example 2); type: cell-based, Hepatitis C virus; conditions: for dn/ds / Ts/Tv / Percentage of sites showing positive selection / location of mutations in NS5A / Fold increase (Amino acid change per site) / Fold increase (Nt. change per site): 48 hrs; for dn/ds: SNAP, control 0.31; for Ts/Tv: control 3.3; for Percentage of sites showing positive selection: control 4.25%; for Amino acid change per site / Nt. change per site: Con1 replicon cells, once daily for 48 hrs, T7 baseline subtracted; for Nt. change per site: ethanol 0.5% v/v, BSO 20 μM, H2O2 100 μM, acetaldehyde 10 μM; for location of mutations in NS5A: SNAP plot against codons; for percentage of nucleotide substitutions A→C / percentage of nucleotide substitutions A→G / percentage of nucleotide substitutions A→U / percentage of nucleotide substitutions C→A / percentage of nucleotide substitutions C→G / percentage of nucleotide substitutions C→U / percentage of nucleotide substitutions G→A / percentage of nucleotide substitutions G→C / percentage of nucleotide substitutions G→U / percentage of nucleotide substitutions U→A / percentage of nucleotide substitutions U→C / percentage of nucleotide substitutions U→G: of all nt. substitutions in the group; for Fold increase (Amino acid change per site) / Fold increase (Nt. change per site): over control
Protocol: Huh7 cell clones (SgPC2 cells) supporting continuous replication of a subgenomic HCV replicon of genotype 1b (Con1S1179I sequence) were used (Choi J. et al. (2004) Hepatology 39:81-89; Blight K J et al. (2000) Science 290:1972). Subgenomic replicons support the HCV RNA genome replication by the viral replicase but no virus is formed. The in vitro transcription, transfection of the viral RNA, and Huh7 human hepatoma cell culture were performed as described (Choi J. et al. (2004) Hepatology 39:81-89; Blight K J et al. (2000) Science 290:1972). All biochemicals including ethanol (molecular biology grade), acetaldehyde, BSO, H2O2, dipyridal, and GSH ethyl ester were obtained from SigmaAldrich except PIH, which was synthesized according to published methods (Kicic A et al., (2001) Cancer 92: 3093-3110; Ponka P. et al., (1979) FEBS Lett 97: 317-321).
Total RNAs were collected using Trizol (Invitrogen). Then, the NS5A region (nt. 4612 to 6013 of Con1 replicon) was reverse transcribed/amplified with AccuScript High Fidelity RT-PCR System (Agilent). The reverse primer used for reverse transcription and PCR amplification was 5′-[…]-3′ (SEQ ID NO: 1), and the forward primer was 5′-[…]-3′ (SEQ ID NO: 2). The XbaI and HindIII restriction enzyme sites are underlined. The cDNA products were cloned into pUC19 via HindIII and XbaI sites and sequenced at the Joint Genome Institute (Livermore, Calif.) and University of California Berkeley Sequencing (Berkeley, Calif.). Sequences were aligned against Con1(S1179I) sequence, using BioEdit/MEGA 4.0 Molecular Evolutionary Genetics Analysis software. Cumulative synonymous and nonsynonymous mutations were computed using Synonymous Nonsynonomous Analysis Program (SNAP; www.hcv.lanl.gov). The […] ratio was calculated using SNAP. Amino acid substitution trends were analyzed by position with MutationCounter, a mutation counting program, developed for this project. The sequences were compared with 1,212 genotype 1b NS5A sequences pooled from the Lawrence Livermore HCV sequence database (www.hcv.lanl.gov) which included sequences from the European, Asian, and Russian databases. Sequences harboring gaps, undetermined nucleotides, or incomplete NS5A sequences were removed prior to the analysis.
To test whether ethanol can affect the HCV RNA sequence, Con1 replicon cells that support genotype 1b subgenomic HCV RNA replication were incubated with ethanol (0.5% v/v), BSO (20 μM), H2O2 (100 μM), or acetaldehyde (10 μM) once daily for 48 hrs with a change of the cell culture medium at the time of each treatment. Acetaldehyde and H2O2 are generated during hepatic metabolism of ethanol. BSO, by inhibiting GSH biosynthesis, mimics GSH depletion seen in hepatitis C patients. GSH participates in detoxification reactions that remove reactive species such as H2O2 and acetaldehyde. Thus, by decreasing GSH, BSO also amplifies the effects of endogenous ROS and RNS, allowing one to test the effects of endogenous ROS/RNS. Then, the RNA was collected, and the NS5A region corresponding to nt. 4612 to 6013 of Con1 replicon was reverse transcribed using AccuScript reverse transcriptase and amplified with PfuUltra (Agilent). PfuUltra is a high fidelity DNA polymerase with an error rate of 4.3×10^−9; AccuScript reverse transcriptase has an error rate of 1.61×10^−7. Then, the cDNA products were cloned into pUC19 and sequenced by the Sanger method.

Con1 replicon cells = assay: 8-OHG oxidative RNA damage in SgPC2 Con1 replicon cells (ELISA); type: cell-based, human; conditions: for 8-OH-G in Con1 replicon (SgPC2) cells, daily treatment for 2 weeks: 0.1% ethanol, 5 μM acetaldehyde; for 8-OH-G in Con1 replicon (SgPC2) cells, daily treatment for 2 weeks / fold increase in 8-OHG content over the control: 20 μM BSO; for 8-OH-G in SgPC2 cells within 2 days: 0.5% ethanol, BSO; for fold increase in 8-OHG content over the control: 48 hrs, 0.5% (v/v) ethanol, 250 μM NiCl2 daily
Protocol: Total RNA was isolated using Trizol (Invitrogen) and analyzed for 8-OH-guanosine (8-OH-G) by northwestern, as described (Shan X et al. (2003) J. Neurosci. 23:4913-4921). Briefly, RNA was size-fractionated by agarose gel electrophoresis, transferred to a nylon membrane, blocked with 1% BSA, incubated sequentially with monoclonal anti-8-OH-G/dG antibodies (QED Bioscience, Inc.) and then with goat anti-mouse HRP-conjugated secondary antibody (Santa Cruz Biotechnology), and signals were detected, using an ECL kit (Amersham). In addition, RNA was digested with nuclease P1 (Sigma, US Biological) and alkaline phosphatase (Promega) and analyzed for 8-OH-G content using RNA Damage Kit (Cell Biolabs, Inc.), following manufacturer's protocols.
(§1) Total RNA was isolated using Trizol (Invitrogen) and analyzed for 8-OHG by ELISA. Briefly, RNA was incubated with 10 U DNase I (GE Healthcare), 10 U nuclease P1 (Sigma or US Biological), and 10 U alkaline phosphatase (Promega) and analyzed for 8-OHG content with RNA Damage Kit (Cell Biolabs, Inc.) and 8-OHG standards, following manufacturer's protocols.

[2] = system: Huh7 cells transfected with JFH1 RNA; assay: 8-OHG oxidative RNA damage in Huh7 cells transfected with JFH1 RNA (ELISA); type: cell-based, human; conditions: 48 hr (0.5% ethanol, 20 μM BSO) and 2 weeks (0.1% ethanol, 20 μM BSO)
Protocol: as §1
HCV induces severe oxidative/nitrosative stress in the host by increasing the generation of reactive species. Thus, JFH1 strain of genotype 2a that supports complete replication cycle of HCV and produces infectious HCV in cell culture was used next to determine whether HCV was sufficient to induce oxidative RNA damage even in the absence of ethanol and BSO. Huh7 cells were transfected with JFH1 RNA and either exposed to 0.5% ethanol (v/v) or 20 μM BSO daily for 48 hrs, or to 0.1% ethanol (v/v) or 20 μM BSO with and without 5 μM dipyridyl or 1 mM GSH ester daily with a change of medium prior to each treatment for 2 weeks.

SMILES | dn/ds [1] | Ts/Tv [1] | Percentage of sites showing positive selection [1] | Amino acid change per site [1] | Nt. change per site [1] | location of mutations in NS5A [1] | percentage of nucleotide substitutions A→C [1] | percentage of nucleotide substitutions A→G [1] | percentage of nucleotide substitutions A→U [1] | percentage of nucleotide substitutions C→A [1] | percentage of nucleotide substitutions C→G [1] | percentage of nucleotide substitutions C→U [1] | percentage of nucleotide substitutions G→A [1] | percentage of nucleotide substitutions G→C [1] | percentage of nucleotide substitutions G→U [1] | percentage of nucleotide substitutions U→A [1] | percentage of nucleotide substitutions U→C [1] | percentage of nucleotide substitutions U→G [1] | Fold increase (Amino acid change per site) [1] | 8-OH-G in Con1 replicon (SgPC2) cells, daily treatment for 2 weeks (Con1 replicon cells) | further results
CCO [Ethanol, ethanol] | 1.05 | 6.8 | 12.3% | 4.97 × 10^−3 amino acid change per site | 1.71 × 10^−3 nt. change per site | clustered in the C-terminal half of NS5A | 1.30 percentage | 25.97 percentage | 2.60 percentage | 0 percentage | 0 percentage | 18.18 percentage | 12.99 percentage | 6.49 percentage | 2.60 percentage | 0 percentage | 29.87 percentage | 0 percentage | 17.8 fold | significant increases | Nt. change per site ([1]; listed as ethanol): 1.71×10^−3 nt. change per site; Amino acid change per site ([1]; listed as ethanol): 4.97×10^−3 amino acid change per site; Fold increase (Nt. change per site) [1]: 5.9 fold; Fold increase (Amino acid change per site) ([1]; listed as ethanol): ~18 fold; Fold increase (Nt. change per site) ([1]; listed as ethanol): about 6 fold; 8-OH-G in SgPC2 cells within 2 days (Con1 replicon cells): increased; fold increase in 8-OHG content over the control (Con1 replicon cells): 34.9±1.2 fold; 8-OHG increased by HCV (JFH1) [2]: exacerbated
CCCCS(=N)(=O)CCC(N)C(=O)O [BSO, L-buthionine-S,R-sulfoximine] | 0.72 | 3.3 | 12.3% | 3.24×10^−3 amino acid change per site | 1.20×10^−3 nt. change per site | clustered in the C-terminal half of NS5A | 1.28 percentage | 24.36 percentage | 2.56 percentage | 3.85 percentage | 5.13 percentage | 8.97 percentage | 16.67 percentage | 3.85 percentage | 3.85 percentage | 0 percentage | 29.49 percentage | 0 percentage | 11.6 fold | significant increases | 8-OH-G in SgPC2 cells within 2 days (Con1 replicon cells): increased; fold increase in 8-OHG content over the control (Con1 replicon cells): 23.4±1.5 fold; 8-OHG increased by HCV (JFH1) [2]: exacerbated
